Where two headings read alike, the source gives them in different places.
Legend:
[1] = system: coronary artery; assay: Blood flow increase of coronary artery in anesthetized dogs, i.v.; assay type: in vivo, dog (mongrel); conditions: Canis lupus familiaris, iv; for change in vivo at 0.3 mg/kg: read-out: Increase in coronary artery blood flow
Experimental: (§1) 2. Blood Flow Increase of Coronary, Vertebral and Femoral Arteries
(§2) A plethysmographic probe (manufactured and sold by NIHON KODEN CO., LTD., Japan) was mounted on the coronary, vertebral and femoral arteries, and blood flow was measured by means of an electromagnetic blood flowmeter (type:MF-27, manufactured and sold by NIHON KODEN CO., LTD., Japan). Under these conditions, the compounds of the present invention were intravenously administered through a polyethylene tube inserted to a femoral veinlet, and the change in blood flow was measured for 30 minutes by means of the electromagnetic blood flowmeter.
(§3) The effects (dilation of the arteries) of the compounds of the present invention on blood flow in coronary, vertebral and femoral arteries were examined according to the method as mentioned hereinbefore.

[2] = system: vertebral artery; assay: Blood flow increase of vertebral artery in anesthetized dogs, i.v.; assay type: in vivo, dog (mongrel); conditions: Canis lupus familiaris, iv; for change in vivo at 0.3 mg/kg: read-out: Increase in vertebral artery blood flow
Experimental: as §1, §2, §3

[3] = system: femoral artery; assay: Blood flow increase of femoral artery in anesthetized dogs, i.v.; assay type: in vivo, dog (mongrel); conditions: Canis lupus familiaris, iv; for change in vivo at 0.3 mg/kg: read-out: Increase in femoral artery blood flow
Experimental: as §1, §2, §3

[4] = system: mesenteric artery; assay: Relaxation of mesenteric artery (KCl-contracted); conditions: Oryctolagus cuniculus; rabbit mesenteric artery contracted with 15 to 20 mM KCl; read-out: ED50 (concentration attaining 50% of complete relaxation)
Experimental: 1. Relaxation of Mesenteric Artery
A rabbit of Japanese local variety weighing about 3 kg was bled to death. Then, the abdomen of the rabbit was dissected to locate a mesenteric artery. […] Thus, shrinking and relaxation of the artery could be measured as a load on the transducer. To the organ bath, KCl was added so that the KCl concentration became 15 to 20 mM, causing the artery to shrink. Then, the compounds of the present invention were added to the organ bath to observe relaxation of the artery.
The effect of the compounds of the present invention on relaxation of mesenteric artery was examined according to the method as mentioned hereinbefore.

[5] = system: bronchial tubes; assay: Inhibition of histamine contraction of bronchial tubes (relaxation of bronchial tubes); conditions: Cavia porcellus; guinea pig bronchial tube, 10 μM histamine; Table 16; read-out: ED50 (50% decrease of histamine contraction of bronchial tubes)
Experimental: 3. Inhibition of Histamine Contraction of Bronchial Tubes (Relaxation of Bronchial Tubes)
That is, a bronchial tube sample taken from a guinea pig was suspended in the 20-ml bath filled with Krebs-Henseleit nutrient solution and maintained at a temperature of 37° C. To the bath was added histamine so that the histamine concentration became 10 μM, causing the bronchial tube sample to contract. After the contraction became stable, the compounds of the present invention were added cumulatively to the bath to observe relaxation of the bronchial tube sample.
The effect of the compounds of the present invention on relaxation of bronchial tubes was examined according to the method as mentioned hereinbefore.

[6] = Acute toxicity in mice; conditions: mouse, in vivo, male mice
Experimental: (§4) Using ddY male mice and Wistar male rats, the acute toxicity of the compounds of the present invention was examined with respect to LD50 according to the method proposed by K. Takagi et al. (K. Takagi and H. Ozawa, "Expeprimental Techniques in Pharmacology," p200-206 (1960), NANZANDO CO., LTD., Japan).
(§5) Compounds of the present invention were tested with respect to acute toxicities according to the method as mentioned hereinbefore.

[7] = Acute toxicity in rats; conditions: in vivo, male rat
Experimental: as §4, §5

O=S(=O)(c1cccc2cnccc12)N1CCCNCC1 [Comparative Compound No. 1, 1(5-Isoquinolinesulfonyl)homopiperazine, reference compound]
change in vivo at 0.3 mg/kg ([1]; dog, i.v., 0.3 mg/kg): 89% | change in vivo at 0.3 mg/kg ([2]; dog, i.v., 0.3 mg/kg): 160% | change in vivo at 0.3 mg/kg ([3]; dog, i.v., 0.3 mg/kg): 48%

O=S(=O)(c1cccc2c(O)nccc12)N1CCCNCC1 [Comparative Compound No. 2, 1(1-Hydroxy-5-isoquinolinesulfonyl)-homopiperazine, reference compound]
change in vivo at 0.3 mg/kg [1]: 27% | change in vivo at 0.3 mg/kg [2]: 48% | change in vivo at 0.3 mg/kg [3]: 30%

O=S(=O)(c1cccc2cnccc12)N1CCNCC1 [Comparative Compound No. 3, 1(5-Isoquinolinesulfonyl)piperazine, reference compound]
change in vivo at 1 mg/kg ([1]; dog): 70% | change in vivo at 1 mg/kg ([2]; dog): 98% | change in vivo at 1 mg/kg ([3]; dog): 69%

CCCCN(CCN)S(=O)(=O)c1cccc2cnccc12 [Compound (3), N-(2-aminoethyl)-N-butyl-5-isoquinolinesulfonamide]
EC50 [4]: 2 µM | change in vivo at 0.3 mg/kg ([1]; dog, i.v., 0.3 mg/kg): 134% | change in vivo at 0.3 mg/kg ([2]; dog, i.v., 0.3 mg/kg): 130% | change in vivo at 0.3 mg/kg ([3]; dog, i.v., 0.3 mg/kg): 25% | EC50 [5]: 5 µM | LD50 ([6]; iv): 105 mg/kg

CCCCCCN(CCN)S(=O)(=O)c1cccc2cnccc12 [Compound (4), N-(2-aminoethyl)-N-hexyl-5-isoquinolinesulfonamide]
EC50 [4]: 1 µM | change in vivo at 0.3 mg/kg ([1]; dog, i.v., 0.3 mg/kg): 188% | change in vivo at 0.3 mg/kg ([2]; dog, i.v., 0.3 mg/kg): 170% | change in vivo at 0.3 mg/kg ([3]; dog, i.v., 0.3 mg/kg): 38% | EC50 [5]: 3 µM | LD50 ([6]; iv): 95 mg/kg | LD50 ([6]; po): 1100 mg/kg | LD50 ([7]; iv): 131 mg/kg | LD50 ([7]; po): 968 mg/kg

CCCCCCNCCN(CC)S(=O)(=O)c1cccc2cnccc12 [Compound (28), N-ethyl-N-(2-hexylaminoethyl)-5-isoquinolinesulfonamide]
EC50 [4]: 10 µM | change in vivo at 0.3 mg/kg ([1]; dog, i.v., 0.3 mg/kg): 114% | change in vivo at 0.3 mg/kg ([2]; dog, i.v., 0.3 mg/kg): 110% | change in vivo at 0.3 mg/kg ([3]; dog, i.v., 0.3 mg/kg): 31% | EC50 [5]: 9 µM | LD50 ([6]; iv): 145 mg/kg

NC1CCCN(S(=O)(=O)c2cccc3cnccc23)C1 (stereo not drawn) [Compound (63), 1-(5-isoquinolinesulfonyl)-3-aminopiperidine]
EC50 [4]: 3 µM | change in vivo at 1 mg/kg ([1]; dog): 128% | change in vivo at 0.3 mg/kg ([1]; dog, i.v., 0.3 mg/kg): 91% | change in vivo at 1 mg/kg ([2]; dog): 95% | change in vivo at 0.3 mg/kg ([2]; dog, i.v., 0.3 mg/kg): 72% | change in vivo at 1 mg/kg ([3]; dog): 38% | change in vivo at 0.3 mg/kg ([3]; dog, i.v., 0.3 mg/kg): 20% | EC50 [5]: 3 µM | LD50 ([6]; iv): 176 mg/kg | LD50 ([6]; po): 1120 mg/kg | LD50 ([7]; iv): 194 mg/kg | LD50 ([7]; po): 1220 mg/kg

CCCCCCNC1CCCN(S(=O)(=O)c2cccc3cnccc23)C1 (stereo not drawn) [Compound (71), 1-(5-isoquinolinesulfonyl)-3-hexylaminopiperidine]
EC50 [4]: 4 µM | change in vivo at 1 mg/kg ([1]; dog): 102% | change in vivo at 1 mg/kg ([2]; dog): 85% | change in vivo at 1 mg/kg ([3]; dog): 35% | EC50 [5]: 10 µM

NC1CCCN(S(=O)(=O)c2cccc3c(O)nccc23)C1 (stereo not drawn) [Compound (84), 1-(1-hydroxy-5-isoquinolinesulfonyl)-3-aminopiperidine]
EC50 [4]: 13 µM | change in vivo at 1 mg/kg ([1]; dog): 74% | change in vivo at 1 mg/kg ([2]; dog): 51% | change in vivo at 1 mg/kg ([3]; dog): 27% | EC50 [5]: 8 µM | LD50 ([6]; iv): 141 mg/kg

CNC1CCN(S(=O)(=O)c2cccc3c(Cl)nccc23)CC1 [Compound (94), 1-(1-chloro-5-isoquinolinesulfonyl)-4-methylaminopiperidine]
EC50 [4]: 18 µM | EC50 [5]: 22 µM

O=S(=O)(c1cccc2c(Cl)nccc12)N1CCC(NCc2ccccc2)CC1 [Compound (95), 1-(1-chloro-5-isoquinolinesulfonyl)-4-benzylaminopiperidine]
EC50 [4]: 14 µM | EC50 [5]: 18 µM

NC1CCCN(S(=O)(=O)c2cccc3c(Cl)nccc23)C1 (stereo not drawn) [Compound (96), 1-(1-chloro-5-isoquinolinesulfonyl)-3-aminopiperidine]
EC50 [4]: 15 µM | EC50 [5]: 12 µM

CCNC1CCCN(S(=O)(=O)c2cccc3c(Cl)nccc23)C1 (stereo not drawn) [Compound (97), 1-(1-chloro-5-isoquinolinesulfonyl)-3-ethylaminopiperidine]
EC50 [4]: 15 µM | EC50 [5]: 10 µM

CCCCCCNC1CCCN(S(=O)(=O)c2cccc3c(Cl)nccc23)C1 (stereo not drawn) [Compound (98), 1-(1-chloro-5-isoquinolinesulfonyl)-3-hexylaminopiperidine]
EC50 [4]: 13 µM | EC50 [5]: 13 µM

CN(C)C1CCCN(S(=O)(=O)c2cccc3c(Cl)nccc23)C1 (stereo not drawn) [Compound (99), 1-(1-chloro-5-isoquinolinesulfonyl)-3-dimethylaminopiperidine]
EC50 [4]: 21 µM | EC50 [5]: 19 µM

NC1CCN(S(=O)(=O)c2cccc3c(Cl)nccc23)C1 (stereo not drawn) [Compound (101), 1-(1-chloro-5-isoquinolinesulfonyl)-3-aminopyrrolidine]
EC50 [4]: 17 µM | EC50 [5]: 14 µM

CNC1CCN(S(=O)(=O)c2cccc3c(Cl)nccc23)C1 (stereo not drawn) [Compound (102), 1-(1-chloro-5-isoquinolinesulfonyl)-3-methylaminopyrrolidine]
EC50 [4]: 16 µM | EC50 [5]: 18 µM

From patent US4798897A, “Isoquinoline derivatives” (Asahi Kasei Kogyo Kabushiki Kaisha, priority 1987, dated 1989)
